# Source: article PMC11879692, “PDE4 inhibitor rolipram represses hedgehog signaling via ubiquitin-mediated proteolysis of GLI transcription factors to regress breast cancer” (The Journal of Biological Chemistry, 2025)
# Columns and labels:
# [1] = system: MCF-7 cells; assay: Annexin V-FITC and PI double staining; format: cell-based, human; details: MCF-7, IC50 dose, 24 h
# Experimental: (§1) To analyze if the cells have undergone necrosis or apoptosis because of 24 h of rolipram treatment, cells were double stained with Annexin V-FITC and PI using BD Pharmingen Annexin V:FITC Apoptosis Detection Kit (BD Biosciences; catalog no.: BD556547) using the manufacturer’s protocol. The data obtained from BD LSRFortessa flow cytometer (RRID: SCR_019600) were analyzed using BD FACSDiva 9.0 software ([31], [32]) (RRID: SCR_001456).
# [2] = system: MDA-MB-231 cells; assay: Annexin V-FITC and PI double staining; format: cell-based, human; details: MDA-MB-231, IC50 dose, 24 h
# Experimental: as §1
# [3] = system: MCF-7 cells; assay: Western blot analysis of protein expression; format: cell-based, human
# Experimental: (§2) After treatment of cells with rolipram, proteins were extracted from cells by lysing the cells with radioimmunoprecipitation assay buffer, comprising of 150 mM NaCl, 1% Triton X-100, 0.5% sodium deoxycholate, and 0.1% SDS. Equal amount of proteins (40 μg) were resolved using SDS-PAGE before transferring onto nitrocellulose membrane (Immobilon-NC Transfer Membrane; Merck Millipore; catalog no.: HATF00010). The membranes were then incubated overnight with primary antibody at a dilution of 1:1000 at 4°C followed by incubation with secondary antibodies at a dilution of 1:5000 for 2 h at room temperature. Immune detection was performed using femtoLUCENT PLUS-HRP (G-Biosciences; catalog no.: 786-003), and the image was obtained from the Bio-Rad ChemiDoc XRS+ system. Analysis of protein expression was carried out using Bio-Rad Image Lab software (RRID: SCR_014210) and National Institutes of Health ImageJ software ([34]) (RRID: SCR_003070). All protein expressions were normalized against β-tubulin (loading control).
# [4] = system: MDA-MB-231 cells; assay: Western blot analysis of protein expression; format: cell-based, human
# Experimental: as §2
# [5] = system: 4T1 mice breast carcinoma cells, mammary fat pad tumor; assay: Solid tumor in mice, tumor weight and volume; format: in vivo, BALB/c mice; details: vs untreated tumor
# Experimental: (§3) Solid tumors were developed in BALB/c mice (n = 3) except the control group (group I) by injecting 1 × 10^4 viable 4T1 (RRID: CVCL_0125) mice breast carcinoma cells (resuspended in 50 μl of PBS) into the inguinal fourth mammary fat pad, and the tumor was allowed to develop for 14 days ([37], [38]). Mice were randomly divided into three groups, viz., untreated tumor (group II), mice treated intraperitoneally with 1 mg//kg bodyweight of rolipram (group III), and mice receiving 5 mg/kg bodyweight of rolipram, intraperitoneally (group IV) ([39], [40]). After 14 days, the mice were sacrificed. Lung, kidney, liver, serum, and the tumors were collected for further experiments ([15]).
# Weight of mammary fat pad of mice from group I and weight of tumors from groups II, III, and IV were measured using digital fine balance. Width and length of the tumors obtained from mice of groups II, III, and IV were measured using digital Vernier caliper. The volume was measured by the formula V = half × (W × W × L), where V is the volume, W is the width, and L is the length of the tumors ([15], [41]).
# [6] = system: 4T1 mice breast carcinoma cells, mammary fat pad tumor; assay: Histological study of mammary tissue and lung of tumor-bearing mice; format: in vivo, BALB/c mice; details: for number of cells per unit area (480 px × 400 px) of lung histological sections: tumor-induced 213 ± 20, control 143 ± 19, mean ± SD
# Experimental: as §3
# Tissue samples of mammary tissue, lung, kidney, and liver from each group of mice were fixed in Bouin’s solution (Sigma–Aldrich; catalog no.: HT10132), dehydrated in graded alcohol, and embedded in paraffin wax. Thin sections (5 μm) of tissues were mounted on glass slides and stained with hematoxylin (Sigma–Aldrich; catalog no.: H3136), following rehydration with graded alcohol. The samples were again dehydrated with graded alcohol and stained with eosin and mounted with Dystyrene Plasticizer Xylene ([42]). The images were obtained in an Olympus CKX53 Inverted Microscope (RRID: SCR_025025) at 10X magnifications with MagVision Software (Magnus). The QuPath (RRID: SCR_018257) software ([43]) was used to detect the cells and determine the area of individual cells and their corresponding nuclei in each image. The tab-delimited text file obtained from QuPath software was utilized by NumPy ([44]) (RRID: SCR_008633) to determine the nucleus-to-cytoplasm ratio of individual cells, and the frequency (cell count) of the nucleus-to-cytoplasm ratio was plotted by MatPlotLib (RRID: SCR_008624), a Python (RRID: SCR_008394) 2D plotting library. For quantifying the number of cells in a unit area of histological section of lung, each section image was divided into 12 equal parts (dimensions: 480 px × 400 px). The number of cells in each part was obtained from QuPath (RRID: SCR_018257) software, and the values were represented as mean ± SD.
# [7] = Histological analysis of liver of tumor-bearing mice; format: in vivo, BALB/c mice; details: rolipram-treated tumor-bearing mice; dilation observed in untreated tumor-bearing mice
# Experimental: as §3
# Tissue samples of mammary tissue, lung, kidney, and liver from each group of mice were fixed in Bouin’s solution (Sigma–Aldrich; catalog no.: HT10132), dehydrated in graded alcohol, and embedded in paraffin wax. Thin sections (5 μm) of tissues were mounted on glass slides and stained with hematoxylin (Sigma–Aldrich; catalog no.: H3136), following rehydration with graded alcohol. The samples were again dehydrated with graded alcohol and stained with eosin and mounted with Dystyrene Plasticizer Xylene ([42]). […] For quantifying the number of cells in a unit area of histological section of lung, each section image was divided into 12 equal parts (dimensions: 480 px × 400 px). […]
# [8] = MDA-MB-231, IC50 dose, time course
# [9] = 1 mg/kg bodyweight i.p., 14 days of treatment
# [10] = 5 mg/kg bodyweight i.p., 14 days
smiles,measurement,setting,value
"COc1ccc(C2CNC(=O)C2)cc1OC1CCCC1 (stereo not drawn) [rolipram, Rolipram]",increase in the dead cell population,[1],8.1%
same,increase in the dead cell population,[2],5.2%
same,reduction of MMP9 expression,"[3]; MCF-7 (hormone-responsive cells), 48 h",fourfold
same,downregulation of expression of MMP2,"[3]; MCF-7, IC50 dose",twofold
same,levels of phospho-Akt,"[3]; MCF-7, IC50 dose",reduced
same,levels of phosphorylated-GSK3β,"[3]; MCF-7, IC50 dose",reduced levels
same,level of GLI2FL,"[3]; MCF-7, IC50 dose, time course",remained unchanged
same,level of GLI2R,"[3]; MCF-7, IC50 dose, time course",increased with time
same,level of GLI3R,"[3]; MCF-7, IC50 dose, time course",increased with time
same,levels of PKA,"[3]; MCF-7, IC50 dose, time course",increased levels
same,level of GLI1,"[3]; MCF-7, IC50 dose, time-dependent",reduced
same,elevated expression of PTEN,"[3]; MCF-7, IC50 dose, within 12 h",threefold
same,levels of vimentin,"[3]; MCF-7, after 48 h",decrease
same,levels of GLI proteins,"[3]; MCF-7, cotreatment with H89 (10 μM), 24 h, vs control and H89 only",unaltered
same,repressor forms of GLI2 and GLI3,"[3]; MCF-7, in combination with TAK-243 (0.1 μM), 24 h",failed to produce the repressor forms
same,"effects on expressions of MMPs, E-cadherin, and vimentin","[3]; MCF-7, in the presence of TAK-243",failed to exert any of the aforementioned effects
same,elevation of level of E-cadherin,"[3]; MCF-7, within 24 h",twofold
same,reduction of MMP9 expression,[4]; MDA-MB-231 (TNBC cells),twofold
same,downregulation of expression of MMP2,"[4]; MDA-MB-231, IC50 dose",twofold
same,levels of phospho-Akt,"[4]; MDA-MB-231, IC50 dose",reduced
same,levels of phosphorylated-GSK3β,"[4]; MDA-MB-231, IC50 dose",reduced levels
same,level of GLI2R,"[4]; MDA-MB-231, IC50 dose, 48 h",decreased slightly
same,level of GLI2FL,[4]; [8],significantly decreased with time
same,level of GLI3R,[4]; [8],increased with time
same,levels of PKA,[4]; [8],increased levels
same,level of GLI1,"[4]; MDA-MB-231, IC50 dose, time-dependent",reduced
same,level of GLI2R,"[4]; MDA-MB-231, IC50 dose, up to 24 h",increased up to 24 h
same,elevated expression of PTEN,"[4]; MDA-MB-231, IC50 dose, within 12 h",threefold
same,level of E-cadherin,"[4]; MDA-MB-231, after 24 h",no conclusive change
same,levels of vimentin,"[4]; MDA-MB-231, after 48 h",decrease
same,levels of GLI proteins,"[4]; MDA-MB-231, cotreatment with H89 (10 μM), 24 h, vs control and H89 only",unaltered
same,repressor forms of GLI2 and GLI3,"[4]; MDA-MB-231, in combination with TAK-243 (0.1 μM), 24 h",failed to produce the repressor forms
same,"effects on expressions of MMPs, E-cadherin, and vimentin","[4]; MDA-MB-231, in the presence of TAK-243",failed to exert any of the aforementioned effects
same,reduction of tumor volume,[5]; [9],twofold
same,reduction of tumor weight,[5]; [9],twofold
same,reduction of tumor volume,[5]; [10],2.8 fold
same,reduction of tumor weight,[5]; [10],3.4 fold
same,number of cells per unit area (480 px × 400 px) of lung histological sections,[6]; 1 mg/kg bodyweight,154 ± 11
same,number of cells per unit area (480 px × 400 px) of lung histological sections,[6]; 5 mg/kg bodyweight,119 ± 10
same,metastatic cellular infiltration in the lung tissues,[6]; rolipram-treated tumor-bearing mice,significantly reduce
same,multinucleated cells in the mammary fat pad and glandular region,"[6]; rolipram-treated tumor-bearing mice, p < 0.001",reduced
same,hepatic vein dilation,[7],not evident
